Results as given in patent US9999619B2, “Piperidin-4-yl azetidine derivatives as JAK1 inhibitors” (Incyte Corporation, priority 2010, dated 2018).

Tests used:
Type in all cases: biochemical
Jak2 (a.a. 828-1132) = Jak2 (a.a. 828-1132) (Homo sapiens (Human), UniProt O60674); test: In vitro JAK kinase assay (HTRF, phosphorylation of a biotinylated peptide), JAK2; details: measured at 1 mM ATP
How it was run: (§1)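 N-terminal His-tagged catalytic domains, baculovirus-expressed in insect cells, phosphorylated a biotinylated peptide for 1 hr at room temperature. EDTA stop was followed by SA-APC and Eu-Py20 antibody for 40 minutes, with phosphopeptide read by HTRF.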

[1] = biological target: human JAK1 (a.a. 837-1142); test: In vitro JAK kinase assay (HTRF, phosphorylation of a biotinylated peptide), JAK1; details: ratio of JAK2 IC50 to JAK1 IC50, measured at 1 mM ATP
How it was run: as §1

[2] = biological target: human JAK1 (a.a. 837-1142) (Homo sapiens, UniProt P23458); test: as above; details: measured at 1 mM ATP
How it was run: as §1

Jak2 (a.a. 828-1132), sequence (O60674 828-1132): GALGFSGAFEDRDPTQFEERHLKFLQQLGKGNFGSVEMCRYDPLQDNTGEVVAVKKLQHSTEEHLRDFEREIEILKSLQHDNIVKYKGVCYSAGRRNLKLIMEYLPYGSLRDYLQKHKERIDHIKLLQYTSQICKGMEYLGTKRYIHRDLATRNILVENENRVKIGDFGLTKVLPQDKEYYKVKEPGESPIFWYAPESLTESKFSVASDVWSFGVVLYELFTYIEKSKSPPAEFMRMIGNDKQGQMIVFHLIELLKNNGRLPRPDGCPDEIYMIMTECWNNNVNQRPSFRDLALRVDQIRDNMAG

Row | SMILES | IC50 (Jak2 (a.a. 828-1132)) | IC50 Ratio JAK2/JAK1 [1] | IC50 [2]
1 | CCN(CC)Cc1cc(C(=O)N2CCC(N3CC(CC#N)(n4cc(-c5ncnc6[nH]ccc56)cn4)C3)CC2)nc(C(F)(F)F)n1 [Example 373, {1-(1-{[6-[(diethylamino)methyl]-2-(trifluoromethyl)pyrimidin-4-yl]carbonyl}piperidin-4-yl)-3-[4-(7H-pyrrolo[2,3-d]pyrimidin-4-yl)-1H-pyrazol-1-yl]azetidin-3-yl}acetonitrile] | 10 to 50 nM | 36.8 | ≤ 5 nM
2 | N#CCC1(n2cc(-c3ncnc4[nH]ccc34)cn2)CN(C2CCN(C(=O)OCC3CCC3)CC2)C1 [Example 387, Cyclobutylmethyl 4-{3-(cyanomethyl)-3-[4-(7H-pyrrolo[2,3-d]pyrimidin-4-yl)-1H-pyrazol-1-yl]azetidin-1-yl}piperidine-1-carboxylate] | 10 to 50 nM | 9.7 | ≤ 5 nM
3 | N#CCC1(n2cc(-c3ncnc4[nH]ccc34)cn2)CN(C2CCN(C(=O)c3cccc(C(F)(F)F)c3)CC2)C1 [Example 22, (3-[4-(7H-pyrrolo[2,3-d]pyrimidin-4-yl)-1H-pyrazol-1-yl]-1-{1-[3-(trifluoromethyl)benzoyl]piperidin-4-yl}azetidin-3-yl)acetonitrile] | 10 to 50 nM | 3.2 | 5 to 20 nM
4 | N#CCC1(n2cc(-c3ccnc4[nH]ccc34)cn2)CN(C2CCN(C(=O)Nc3ccc(C#N)cc3F)CC2)C1 [Example 312, N-(4-cyano-2-fluorophenyl)-4-{3-(cyanomethyl)-3-[4-(1H-pyrrolo[2,3-b]pyridin-4-yl)-1H-pyrazol-1-yl]azetidin-1-yl}piperidine-1-carboxamide] | 50 to 100 nM | 5.3 | 5 to 20 nM
5 | N#CCC1(n2cc(-c3c(F)cnc4[nH]ccc34)cn2)CN(C2CCN(C(=O)c3cc(F)cc(C#N)c3)CC2)C1 [Example 316, 3-[(4-{3-(cyanomethyl)-3-[4-(5-fluoro-1H-pyrrolo[2,3-b]pyridin-4-yl)-1H-pyrazol-1-yl]azetidin-1-yl}piperidin-1-yl)carbonyl]-5-fluorobenzonitrile] | 10 to 50 nM | 9.5 | ≤ 5 nM
6 | N#CCC1(n2ccc(-c3ncnc4[nH]ccc34)c2)CN(C2CCN(C(=O)c3cccc(C(F)(F)F)c3)CC2)C1 [Example 268, (3-[3-(7H-pyrrolo[2,3-d]pyrimidin-4-yl)-1H-pyrrol-1-yl]-1-{1-[3-(trifluoromethyl)benzoyl]piperidin-4-yl}azetidin-3-yl)acetonitrile] | 10 to 50 nM | 3.1 | 5 to 20 nM
7 | N#CCC1(n2cc(-c3ncnc4[nH]ccc34)cn2)CN(C2CCN(C(=O)c3cc(F)c(F)c(F)c3F)CC2)C1 [Example 54, {3-[4-(7H-pyrrolo[2,3-d]pyrimidin-4-yl)-1H-pyrazol-1-yl]-1-[1-(2,3,4,5-tetrafluorobenzoyl)piperidin-4-yl]azetidin-3-yl}acetonitrile] | 50 to 100 nM | 9.1 | 5 to 20 nM
8 | N#CCC1(n2cc(-c3ncnc4[nH]ccc34)cn2)CN(C2CCN(C(=O)c3cncc(C(F)(F)F)n3)CC2)C1 [Example 86, [3-[4-(7H-pyrrolo[2,3-d]pyrimidin-4-yl)-1H-pyrazol-1-yl]-1-(1-{[6-(trifluoromethyl)pyrazin-2-yl]carbonyl}piperidin-4-yl)azetidin-3-yl]acetonitrile] | 50 to 100 nM | 19.4 | ≤ 5 nM
9 | N#CCC1(n2cc(-c3ncnc4[nH]ccc34)cn2)CN(C2CCN(C(=O)c3cccc4ccccc34)CC2)C1 [Example 87, {1-[1-(1-naphthoyl)piperidin-4-yl]-3-[4-(7H-pyrrolo[2,3-d]pyrimidin-4-yl)-1H-pyrazol-1-yl]azetidin-3-yl}acetonitrile] | ≤ 10 nM | 0.3 | ≤ 5 nM
